Results published in publication PMC10860144, “Exploring the Dispersion and Electrostatic Components in Arene–Arene Interactions between Ligands and G4 DNA to Develop G4-Ligands” (Journal of Medicinal Chemistry, 2024).

System: template not forming a G4 structure (PEPu24T mut)
Assay: Taq polymerase stop (primer extension) assay, non-G4 template
Format: biochemical
From the text: To challenge all the synthesized compounds (2–11 and 25–29) in a more intricate context, we conducted a Taq polymerase stop assay to evaluate their capacity to impede DNA synthesis through G4 stabilization. In this assay, we compared the progress of the Taq DNA polymerase along two distinct DNA templates: one with a G4 structure (Figure 5) and another serving as a non-G4 control (Figure S21). If an external species (e.g., G4 ligand) binds and stabilizes the G4 structure, the polymerase will be partially halted. The extent of this DNA polymerase stalling is dependent on the ability of the compound to stabilize the G4 on the DNA template. The increased G4 stabilization can be detected as a reduction in the amount of newly synthesized DNA that has reached the end of the DNA template (full-length/end-product). Analysis of these shorter terminated DNA products will give information about the precise location of the DNA polymerase stalling with a single nucleotide resolution. If the ligand imposes little to no stabilization or binding, the G4 is readily resolved by the DNA polymerase, and no difference in the amount of DNA end-product can therefore be expected upon the addition of the compound. […]
The images were quantified using ImageJ 1.53e software and the percentage of full-length product compared to a sample without compound was calculated. […]

Cc1cc(C)c2nc(Nc3nc(C)cc(NCCCN(C)C)n3)nc(C)c2c1 [Compound 5, N4-(3-(Dimethylamino)propyl)-6-methyl-N2-(4,6,8-trimethylquinazolin-2-yl)pyrimidine-2,4-diamine]
concentration at which an effect on the Taq polymerase was observed in the absence of a G4 structure: > 4 µM
